Test results as given in US20230203060A1 (GENFLEET THERAPEUTICS (SHANGHAI) INC., priority 2020, published 2023).
Structures can show the parent of a compound that is named as a salt. Where two headings read alike, the source gives them in different places.

Key:
[1] = tested on: KRAS G12C mutant NCI-H358 cells; experiment: Cell proliferation inhibition experiment, 3D spheroid, CellTiter-Glo, NCI-H358; assay type: cell-based, human; settings: read-out: H358 IC50
Procedure, shortened: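 NCI-H358 (800 cells/well, RPMI-1640) and A549 (400 cells/well, F-12K) grown overnight as 3D spheroids in 2% FBS medium, then exposed 5 days to 3.16-fold compound dilutions at 0.1% DMSO. Viability measured by CellTiter-Glo luminescence; inhibition relative to DMSO and medium blank, IC50 from four-parameter fit.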

[2] = tested on: phosphorylated ERK downstream of KRAS G12C in MIA PaCa2 cells; experiment: Cell p-ERK detection experiment (HTRF) in MIA PaCa2; assay type: cell-based, human; settings: read-out: p-ERK IC50
Procedure, shortened: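 KRAS G12C-mutant MIA PaCa2 cells (2.5E4 per well, overnight) exposed 2 h to a 3.16-fold compound dilution series at 0.1% DMSO. Lysates probed 4 h with HTRF antibodies to ERK phospho-T202/Y204; inhibition versus DMSO control and blank, IC50 by four-parameter fit.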

[3] = Homo sapiens, NCI-H358, 120 h, NCI-H358 (KRAS G12C mutant) 3D spheroid, 5 days with compound, CellTiter-Glo
[4] = Homo sapiens, MIA PaCa-2, 2 h, MIA PaCa2 cells, 2 hours with compound, Advance ERK phospho-T202/Y204 HTRF kit
[5] = NCI-H358 (KRAS G12C mutant) 3D spheroid, 5 days with compound, CellTiter-Glo
[6] = MIA PaCa2 cells, 2 hours with compound, Advance ERK phospho-T202/Y204 HTRF kit

C=CC(=O)N1CCN2C(=O)c3c(N4C[C@@H](O)CC4(C)C)nc(-c4c(O)cccc4F)c(Cl)c3OC[C@H]2C1 (single isomer, unassigned) [Z81]
IC50 [1, 3]: 0.001 µM
IC50 [2, 4]: 0.013 µM

C=CC(=O)N1CCN2C(=O)c3c(NC(C)C)nc(-c4c(O)cccc4F)c(Cl)c3OC[C@H]2C1 [Z75, (6aR)-8-acryloyl-4-chloro-1-(isopropylamino)-3-(2-fluoro-6-hydroxyphenyl)-6,6a,7,8,9,10-hexahydro-12H-pyrazino[2,1-c]pyrido[3,4-f][1,4]oxazepin-12-one]
IC50 [1, 3]: 0.029 µM

C=CC(=O)N1CCN2C(=O)c3c(N4CC(N(C)C5COC5)CC4(C)C)nc(-c4c(O)cccc4F)c(Cl)c3OC[C@H]2C1 (single isomer, unassigned) [Z331-2]
IC50 [1, 5]: 0.0011 µM
IC50 [2, 6]: 0.007 µM

C=CC(=O)N1CCN2C(=O)c3c(N4CCN(C)[C@H](C)C4)nc(-c4c(O)cccc4F)c(Cl)c3OC[C@H]2C1 [Z235, (6aR)-8-acryloyl-4-chloro-1-((R)-3,4-dimethylpiperazin-1-yl)-3-(2-fluoro-6-hydroxyphenyl)-6,6a,7,8,9,10-hexahydro-12H-pyrazino[2,1-c]pyrido[3,4-f][1,4]oxazepin-12-one]
IC50 [1, 3]: 0.021 µM
IC50 [2, 4]: 0.138 µM

C=CC(=O)N1CCN2C(=O)c3c(N4C[C@H](N(C)CCF)CC4(C)C)nc(-c4ccccc4F)c(Cl)c3OC[C@H]2C1 (single isomer, unassigned) [Z660-2]
IC50 [1, 5]: 0.0108 µM
IC50 [2, 6]: 0.091 µM

C=CC(=O)N1CCN2C(=O)c3c(N4CCN(C)C[C@@H]4C)nc(-c4c(O)cccc4Cl)c(Cl)c3OC[C@H]2C1 (single isomer, unassigned) [Z455-1]
IC50 [1, 5]: 0.0452 µM
IC50 [2, 6]: 0.479 µM

C=CC(=O)N1CCN2C(=O)c3c(N4CC(=O)N(C)CC4C)nc(-c4c(O)cccc4F)c(Cl)c3OC[C@H]2C1 (single isomer, unassigned) [Z221-2]
IC50 [1, 5]: 0.0168 µM
IC50 [2, 6]: 0.173 µM

C=CC(=O)N1CCN2C(=O)c3c(OC4CCN(C)CC4)nc(-c4c(O)cccc4F)c(Cl)c3OC[C@H]2C1 [Z61, (6aR)-8-acryloyl-4-chloro-3-(2-fluoro-6-hydroxyphenyl)-1-((1-methylpiperidin-4-yl)oxy)-6,6a,7,8,9,10-hexahydro-12H-pyrazino[2,1-c]pyrido[3,4-f][1,4]oxazepin-12-one]
IC50 [1, 3]: 0.033 µM

C=CC(=O)N1CCN2C(=O)c3c(N4CCN(C)C(C)(C)C4)nc(-c4ccccc4F)c(Cl)c3OC[C@H]2C1 [Z463, (R)-8-acryloyl-4-chloro-3-(2-fluorophenyl)-1-(3,3,4-trimethylpiperazin-1-yl)-6,6a,7,8,9,10-hexahydro-12H-pyrazino[2,1-c]pyrido[3,4-f][1,4]oxazepin-12-one, formate]
IC50 ([1]; Homo sapiens, NCI-H358, 120 h): 0.039 µM
IC50 ([2]; Homo sapiens, MIA PaCa-2, 2 h): 0.271 µM

C=CC(=O)N1CCN2C(=O)c3c(N4CCOC5CC54)nc(-c4c(O)cccc4F)c(Cl)c3OC[C@H]2C1 (stereo partly drawn) [Z76, (6aR)-8-acryloyl-4-chloro-1-(2-oxa-5-azabicyclo[4.1.0]heptan-5-yl)-3-(2-fluoro-6-hydroxyphenyl)-6,6a,7,8,9,10-hexahydro-12H-pyrazino[2,1-c]pyrido[3,4-f][1,4]oxazepin-12-one]
IC50 [1, 3]: 0.022 µM

C=CC(=O)N1CCN2C(=O)c3c(N4C[C@@H](O)C[C@@H]4C)nc(-c4c(O)cccc4F)c(Cl)c3OC[C@H]2C1 [Z260, (6aR)-8-acryloyl-4-chloro-3-(2-fluoro-6-hydroxyphenyl)-1-((2S,4S)-4-hydroxy-2-methylpyrrolidin-1-yl)-6,6a,7,8,9,10-hexahydro-12H-pyrazino[2,1-c]pyrido[3,4-f][1,4]oxazepin-12-one]
IC50 [1, 3]: 0.005 µM
IC50 [2, 4]: 0.091 µM

C=CC(=O)N1CCN2C(=O)c3c(N4CCN(C)C(C)(C)C4)nc(-c4c(O)cccc4F)c(Cl)c3OC[C@H]2C1 [Z261, (6aR)-8-acryloyl-4-chloro-3-(2-fluoro-6-hydroxyphenyl)-1-(3,3,4-trimethylpiperazin-1-yl)-6,6a,7,8,9,10-hexahydro-12H-pyrazino[2,1-c]pyrido[3,4-f][1,4]oxazepin-12-one]
IC50 [1, 3]: 0.0066 µM
IC50 [2, 4]: 0.059 µM

C=CC(=O)N1CCN2C(=O)c3c(N4CC(N5CCOCC5)CC4(C)C)nc(-c4ccccc4F)c(Cl)c3OC[C@H]2C1 (single isomer, unassigned) [Z468-2]
IC50 [1, 5]: 0.005 µM
IC50 [2, 6]: 0.061 µM

C=CC(=O)N1CCN2C(=O)c3c(N4CCN(C)C[C@@H]4C)nc(-c4c(O)cccc4Cl)c(Cl)c3OC[C@H]2C1 (single isomer, unassigned) [Z455-2]
IC50 [1, 5]: 0.0037 µM
IC50 [2, 6]: 0.033 µM

C=CC(=O)N1CCN2C(=O)c3c(C4NCCN5C(=O)CCC45C)nc(-c4c(O)cccc4F)c(Cl)c3OC[C@H]2C1 (stereo partly drawn) [Z337, (6aR)-8-acryloyl-4-chloro-3-(2-fluoro-6-hydroxyphenyl)-1-(8a-methylhexahydropyrrolo[1,2-a]pyrazin-6 (2H)-one-1-yl)-6,6a,7,8,9,10-hexahydro-12H-pyrazino[2,1-c]pyrido[3,4-f][1,4]oxazepin-12-one]
IC50 [1, 5]: 0.015 µM
IC50 [2, 6]: 0.154 µM

C=CC(=O)N1CCN2C(=O)c3c(N4CCNC(C)C4C)nc(-c4c(O)cccc4F)c(Cl)c3OC[C@H]2C1 (stereo partly drawn) [Z308, (6aR)-8-acryloyl-4-chloro-1-(2,3-dimethylpiperazin-1-yl)-3-(2-fluoro-6-hydroxyphenyl)-6,6a,7,8,9, 10-hexahydro-12H-pyrazino[2,1-c]pyrido[3,4-f][1,4]oxazepin-12-one]
IC50 [1, 3]: 0.03 µM

C=CC(=O)N1CCN2C(=O)c3c(N4CC(N(C)CC(F)F)CC4(C)C)nc(-c4ccccc4F)c(Cl)c3OC[C@H]2C1 (stereo partly drawn) [Z659]
IC50 [1, 5]: 0.0018 µM
IC50 [2, 6]: 0.026 µM

C=CC(=O)N1CCN2C(=O)c3c(N4CCN(C)C(C)C4C)nc(-c4c(O)cccc4F)c(Cl)c3OC[C@H]2C1 (stereo partly drawn) [Z308a, (6aR)-8-acryloyl-4-chloro-3-(2-fluoro-6-hydroxyphenyl)-1-(2,3,4-trimethylpiperazin-1-yl)-6,6a,7,8,9,10-hexahydro-12H-pyrazino[2,1-c]pyrido[3,4-f][1,4]oxazepin-12-one]
IC50 [1, 5]: 0.0041 µM
IC50 [2, 6]: 0.021 µM

C=CC(=O)N1CCN2C(=O)c3c(N4CCOC5(CC5)C4)nc(-c4c(O)cccc4F)c(Cl)c3OC[C@H]2C1 [Z63, (6aR)-8-acryloyl-4-chloro-1-(4-oxa-7-azaspiro[2.5]octan-7-yl)-3-(2-fluoro-6-hydroxyphenyl)-6,6a,7,8,9,10-hexahydro-12H-pyrazino[2,1-c]pyrido[3,4-f][1,4]oxazepin-12-one]
IC50 [1, 3]: 0.014 µM
IC50 [2, 4]: 0.154 µM

C=CC(=O)N1CCN2C(=O)c3c(N4C[C@H](N(C)C)CC4(C)C)nc(-c4ccccc4)c(Cl)c3OC[C@H]2C1 (single isomer, unassigned) [Z655-2]
IC50 [1, 5]: 0.018 µM
IC50 [2, 6]: 0.196 µM

C=CC(=O)N1CCN2C(=O)c3c(N4CCN(CC)C[C@@H]4C)nc(-c4c(O)cccc4F)c(Cl)c3OC[C@H]2C1 [Z236]
IC50 ([1]; Homo sapiens, NCI-H358, 120 h): 0.0058 µM
IC50 ([2]; Homo sapiens, MIA PaCa-2, 2 h): 0.025 µM

C=CC(=O)N1CCN2C(=O)c3c(N4C[C@H](O)CC4(C)C)nc(-c4c(O)cccc4F)c(Cl)c3OC[C@H]2C1 (single isomer, unassigned) [Z82]
IC50 [1, 3]: 0.011 µM
IC50 [2, 4]: 0.136 µM

C=CC(=O)N1CCN2C(=O)c3c(N4C[C@H](NC)CC4(C)C)nc(-c4ccccc4F)c(Cl)c3OC[C@H]2C1 (single isomer, unassigned) [Z661-2]
IC50 [2, 4]: 0.538 µM

C=CC(=O)N1CCN2C(=O)c3c(N(C)c4c(C)ccnc4C(C)C)nc(-c4c(O)cccc4F)c(Cl)c3OC[C@H]2C1 [Z6, (6aR)-8-acryloyl-4-chloro-3-(2-fluoro-6-hydroxyphenyl)-1-((2-isopropyl-4-methylpyridin-3-yl)(methyl)amino)-6,6a,7,8,9,10-hexahydro-12H-pyrazino[2,1-c]pyrido[3,4-f][1,4]oxazepin-12-one]
IC50 [1, 3]: 0.007 µM
IC50 [2, 4]: 0.128 µM

C=CC(=O)N1CCN2C(=O)c3c(N4CC(=O)N(C)CC4C)nc(-c4c(O)cccc4F)c(Cl)c3OC[C@H]2C1 (stereo partly drawn) [Z221, (6aR)-8-acryloyl-4-chloro-1-(2,4-dimethyl-5-oxopiperazin-1-yl)-3-(2-fluoro-6-hydroxyphenyl)-6,6a,7,8,9,10-hexahydro-12H-pyrazino[2,1-c]pyrido[3,4-f][1,4]oxazepin-12-one]
IC50 [1, 3]: 0.003 µM
IC50 [2, 4]: 0.023 µM

C=CC(=O)N1CCN2C(=O)c3c(NC(C)(C)C)nc(-c4c(O)cccc4F)c(Cl)c3OC[C@H]2C1 [Z69, (6aR)-8-acryloyl-1-(tert-butylamino)-4-chloro-3-(2-fluoro-6-hydroxyphenyl)-6,6a,7,8,9,10-hexahydro-12H-pyrazino[2,1-c]pyrido[3,4-f][1,4]oxazepin-12-one]
IC50 [1, 3]: 0.009 µM
IC50 [2, 4]: 0.079 µM

C=CC(=O)N1CCN2C(=O)c3c(N4CC(O)CC4(C)C)nc(-c4c(O)cccc4F)c(F)c3OC[C@H]2C1 (stereo partly drawn) [Z256, (6aR)-8-acryloyl-4-fluoro-3-(2-fluoro-6-hydroxyphenyl)-1-(4-hydroxy-2,2-dimethylpyrrolidin-1-yl)-6,6a,7,8,9,10-hexahydro-12H-pyrazino[2,1-c]pyrido[3,4-f][1,4]oxazepin-12-one]
IC50 [1, 3]: 0.005 µM
IC50 [2, 4]: 0.043 µM

C=CC(=O)N1CCN2C(=O)c3c(N4CC(N(C)C5COC5)CC4(C)C)nc(-c4c(O)cccc4F)c(Cl)c3OC[C@H]2C1 (single isomer, unassigned) [Z331-1]
IC50 [1, 5]: 0.0005 µM
IC50 [2, 4]: 0.006 µM
